Experimental data as given in PubChem BioAssay (NCI).
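Method: 48-hour compound exposure of cells in 96-well plates, five concentrations, linear interpolation of endpoints. GI50 = concentration required for 50% inhibition of growth. TGI: total growth inhibition.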

Assays:
Assay in all cases: NCI-60 cell line screen, 48 h
ACHN renal = test system: ACHN renal
BT-549 breast = test system: BT-549 breast
CAKI-1 renal = test system: CAKI-1 renal
HOP-62 NSCLC = test system: HOP-62 NSCLC
LOX IMVI melanoma = test system: LOX IMVI melanoma
MDA-MB-435 = test system: MDA-MB-435
OVCAR-5 ovarian = test system: OVCAR-5 ovarian
SK-MEL-28 melanoma = test system: SK-MEL-28 melanoma
SNB-19 CNS = test system: SNB-19 CNS
SNB-75 CNS = test system: SNB-75 CNS

Structure (SMILES) | TGI (ACHN renal) [µM] | TGI (BT-549 breast) [µM] | TGI (CAKI-1 renal) [µM] | TGI (HOP-62 NSCLC) [µM] | TGI (LOX IMVI melanoma) [µM] | TGI (MDA-MB-435) [µM] | TGI (OVCAR-5 ovarian) [µM] | TGI (SK-MEL-28 melanoma) [µM] | TGI (SNB-19 CNS) [µM] | TGI (SNB-75 CNS) [µM] | GI50 (ACHN renal) [µM] | GI50 (BT-549 breast) [µM] | GI50 (CAKI-1 renal) [µM] | GI50 (HOP-62 NSCLC) [µM] | GI50 (LOX IMVI melanoma) [µM] | GI50 (MDA-MB-435) [µM] | GI50 (OVCAR-5 ovarian) [µM] | GI50 (SK-MEL-28 melanoma) [µM] | GI50 (SNB-19 CNS) [µM] | GI50 (SNB-75 CNS) [µM]
O=C1C=CC(=O)N1c1ccc(I)cc1 | 33.3 | 36 | 34.3 | 38.2 | 42.9 | 34.7 | 47.6 | 35.3 | > 61.5 | 44.1 |  |  |  |  |  |  |  |  |  | 
O=C(O)CNCCc1ccccc1 | > 100 | > 100 | > 100 | > 100 | > 100 | > 100 | > 100 | > 100 | > 100 | > 100 |  |  |  |  |  |  |  |  |  | 
N#C/C(=C\c1ccc(F)cc1)n1nc2cccc(F)c2n1 | > 100 | > 100 | > 100 | > 100 | 9.76 | 4.62 | > 100 | > 100 | > 100 | 8.09 | 5.41 | 4.72 | 5.17 | 3.54 | 2.92 | 1.89 | 5.04 | 5.8 | 6.67 | 2.37
O=C1c2cccnc2C(=O)c2c1c(C(=O)OCCc1ccccn1)c1ccccn21 | 1.22 | 2.11 | 11.3 | 0.326 | 1.12 | 3.72 | 10.5 | 1.55 | 1.59 | 1.71 | < 0.01 | 0.0671 | 0.039 | < 0.01 | 0.0206 | 0.0524 | 0.497 | 0.0749 | 0.0308 | < 0.0153
FC(F)(F)c1ccc(-c2ncc(-c3ccc(C(F)(F)F)cc3)c(NCc3cc(C(F)(F)F)cc(C(F)(F)F)c3)n2)cc1 | > 100 | > 100 | 28 | > 100 | 26.2 | > 100 | > 100 | > 100 | > 100 | 73 | 3.91 | 7.91 | 3.36 | 5.16 | 3.4 | 4.23 | 6.02 | 5.85 | 3.49 | 4.17
Cn1c(NCC(CN2CCCC2)OC(=O)c2ccccc2)cc(=O)n(C)c1=O (stereo unspecified) | > 100 | > 100 | > 100 | > 100 | > 100 | > 100 | > 100 | > 100 | > 100 | > 100 | > 100 | > 100 | > 100 | > 100 | > 100 | > 100 | > 100 | > 100 | > 100 | > 100
C=C(CN1CCN(c2ccccc2C(F)(F)F)CC1)c1ccc(C(=O)Nc2ccccc2N)cc1 | > 100 | 14 | > 51.4 | > 44.4 | 42.2 | > 22.6 | > 100 | > 100 | > 100 | 20.1 | 7.19 | 2.67 | 7.97 | 4.76 | 5.86 | 2.72 | 11.8 | 10.4 | 24.4 | 2.82
FC(F)(F)c1cc(-c2ncn(/C=C\c3nnco3)n2)cc(C(F)(F)F)c1 | > 96.2 | 2.44 | > 38.9 | 28.3 | 3.82 | 1.51 | > 63.3 | 49.3 | > 100 | 3.65 | 0.163 | 0.0719 | 0.0497 | 0.282 | 0.0902 | 0.0581 | 0.267 | 0.125 | 0.126 | 0.106
COc1cc2c(cc1OCCCCn1c(-c3cccs3)nc3ccccc31)N=C[C@@H]1CCCN1C2=O | 7.73 | 1.2 | 6.71 |  | 3.93 | 3.75 | 9.13 | 3.27 | 4.39 | 2.54 | 2.81 | 0.417 | 0.949 |  | 0.789 | 1.39 | 3.27 | 1.53 | 1.53 | 1.22
c1ccc(-c2cn(-c3ccccc3)c(-c3ccccc3)n2)cc1 | 28.7 | 30.5 | 31.6 | 7.88 | 4.29 | 24.7 | 39.7 | 16.5 | 23.9 | 27.7 | 15.4 | 16 | 17.4 | 2.72 | 1.95 | 7.58 | 19.8 | 4.75 | 11.5 | 14
CCCOc1ccc(/C=N/Nc2cc(C)nc3ccc(Cl)cc23)cc1 | 3.12 | 5.46 | 3.2 | 2.98 | 3.1 | 3.24 | 3.28 | 3.15 | 3.54 | 3.54 | 1.74 | 2.17 | 1.78 | 1.58 | 1.7 | 1.8 | 1.87 | 1.73 | 1.95 | 1.94
CCCCCCc1cc2cc(-c3csc(/C=C/c4ccccc4)n3)c(=O)oc2cc1O | 15.2 | > 100 | 48.5 | 21.4 | 12.8 | 27.2 | > 100 | 24.9 | 34.3 | 26.5 | 4.19 | 35.6 | 19 | 7.16 | 3.29 | 12.9 | 40.8 | 10.6 | 10.3 | 11.5
O=C(c1cccs1)c1nc2cc(Cl)ccc2[n+]([O-])c1C(F)(F)F | > 100 | > 100 | > 100 | > 100 | > 100 | > 100 | > 100 | > 100 | > 100 | > 100 | > 100 | > 100 | > 100 | > 100 | > 100 | > 100 | > 100 | > 100 | > 100 | 57.3
N#Cc1c2ccccc2c2nnc3ccccc3n12 | 61.2 | 45.1 | > 100 | 60.1 | 25.2 | > 100 |  | > 100 | > 100 | > 100 | 19.3 | 12 | 34.8 | 24.4 | 6.47 | 33.5 |  | 78.6 | 41.1 | 28.3
COc1ccc(C2CC(c3ccc4ccccc4c3)=NN2c2nc(O)c(C3=c4cc(OC)ccc4=NC3=O)s2)cc1 (stereo unspecified) | 0.419 | 17.5 |  | 0.158 | 0.127 | 0.134 | 1.35 | 0.334 | 0.592 | 0.445 | 0.0678 | 0.978 | 0.349 | 0.0633 | 0.0359 | 0.0351 | 0.115 | 0.0932 | 0.0897 | 0.0779
Cc1cc(=O)oc2cc(OC(=O)Nc3ccccc3)ccc12 | > 100 | > 100 | > 100 | > 100 | > 100 | > 100 | > 100 | > 100 | > 100 | > 100 |  |  |  |  |  |  |  |  |  | 
CCN(CC)CC(O)COc1c(Br)c(Br)c(Br)c2c1OC(C)(C)C2 (stereo unspecified) | 16.4 | 17.6 | 23.8 | 19.7 | 3.67 | 7.31 | 23.8 | 3.24 | 33.9 | 19.4 | 4.94 | 4.5 | 6.8 | 4.03 | 2.08 | 2.66 | 7.68 | 1.62 | 9.22 | 5.31
O=Cc1ccc(-c2ccc(-c3ccc(C=O)o3)[se]2)o1 | > 100 | > 100 | > 100 | > 100 | > 100 | > 100 | > 100 | > 100 | > 100 | > 100 | 45.5 | > 100 | > 100 | 57.5 | > 100 | > 100 | > 85.2 | > 100 | > 100 | 29.6
Cn1c(=O)c2[nH]c(CCCc3ccc([N+](=O)[O-])cc3)nc2n(C)c1=O | > 100 | > 100 | > 100 | > 100 | > 100 | > 100 | > 100 | > 100 | > 100 | > 100 |  |  |  |  |  |  |  |  |  | 
COc1cc2c3c(n(CCCN4CCCNCC4)c(=O)c2cc1OC)-c1cc2c(cc1C3=O)OCO2 | 0.751 | 11.5 | 1.65 | 4.46 | 0.886 | 13.7 | 9.69 | 14.1 | 9.62 | 7.66 | 0.193 | 2.2 | 0.12 | 0.558 | 0.165 | 2.58 | 2.69 | 2.49 | 1.26 | 0.754
NC(=N\N=C/c1ccc(Cl)cc1Cl)/C(N)=N\N=C/c1ccc(Cl)cc1Cl | 15.6 | > 93.2 | > 100 | 38.7 | > 100 | > 100 | > 100 | > 100 | > 100 | 13.4 | 0.576 | 45.3 | 16.3 | 15.1 | 25.5 | > 100 | > 100 | > 100 | 26.8 | 1.65
CCCCN(CC)CCCCCCCCCCN1CCCc2cc(OC)ccc21 | 14.9 | 12.5 | 7.47 | 10.2 | 3.34 | 7.06 | 24.1 | 7.33 | 18.8 | 11 | 3.91 | 3.63 | 2.13 | 2.69 | 1.7 | 2.41 | 6.37 | 2.92 | 4.01 | 3.02
CC(C)OCc1cc(CN2CCN(c3cccc(Cl)c3)CC2)c(O)c2ncccc12 | 12.4 | 19.8 | 11 | 6.54 | 10.2 | 11.4 | 15.1 | 14.5 | 21.7 | 14.4 | 0.332 | 3.26 | 0.223 | 0.431 | 0.416 | 0.923 | 3.6 | 0.997 | 0.504 | 1.19
O=c1[nH]c2ccccc2n2cc3ccccc3c12 | 7.18 | 64.3 | 35.5 | 17.9 | 12 | 31 | 35.5 | > 100 | > 100 | 74.4 | 1.81 | 18.9 | 17.6 | 4.42 | 3 | 16.3 | 10.4 | 22.6 | 8.93 | 13.4
N#Cc1c2ccccc2c2nnc3ccc(C(F)(F)F)cc3n12 | > 100 | 44.6 | > 100 | > 100 | 94.5 | > 100 |  | > 100 | > 100 | > 100 | 27.3 | 21 | 43.7 | > 100 | 21.6 | 32.5 |  | > 100 | > 100 | 47.6
Cc1cc(C(O)(c2ccc(Nc3ccccc3)cc2)c2ccc(Nc3ccc(S(=O)(=O)O)cc3)cc2)ccc1N (stereo unspecified) | 2.7 | 5.61 | 9.14 | 4.65 | 2.17 | 2.69 | 3 |  | 3.48 | 30.9 | 1.29 | 1.84 | 2.24 | 2.27 | 0.975 | 1.28 | 1.4 |  | 1.39 | 1.29
